The test system of assay [1] is THP-1. Kind of assay: Antiinflammatory activity in human THP-1 monocytes assessed as decrease in IFN-gamma production at 10 uM incubated for 24 hrs in the presence of JTE907 by ELISA coupled qRT-PCR analysis. Format: functional, cell-based. Background: An ELISA detects its analyte on a solid surface through an enzyme-linked reagent.
Assay [2] has as its system THP-1. Kind of assay: Antiinflammatory activity in human THP-1 monocytes assessed as decrease in IL-1beta production at 10 uM incubated for 24 hrs in the presence of JTE907 by ELISA coupled qRT-PCR analysis. It counts as functional, cell-based.
The subject of assay [3] is THP-1. Briefly: Antiinflammatory activity in human THP-1 monocytes assessed as decrease in IL-6 production at 10 uM incubated for 24 hrs in the presence of JTE907 by ELISA coupled qRT-PCR analysis. It counts as functional, cell-based.
The subject of assay [4] is THP-1. Briefly: Antiinflammatory against LPS-activated human THP-1 monocytes assessed as increase in IL-10 production at 10 uM incubated for 24 hrs in the presence of JTE907 by ELISA coupled qRT-PCR analysis. It counts as functional, cell-based.
For assay [5], the system named is THP-1. Briefly: Antiinflammatory against LPS-activated human THP-1 monocytes assessed as decrease in TNF-alpha production at 10 uM incubated for 24 hrs in the presence of JTE907 by ELISA coupled qRT-PCR analysis. It counts as functional, cell-based.
In assay [6] the test system is THP-1. Kind of assay: Antiinflammatory activity in PMA-differentiated human THP-1 macrophages assessed as reduction in IL-1beta production at 10 uM incubated for 24 hrs by ELISA coupled qRT-PCR analysis relative to control. Format: functional. Details: scale not given: the % may be the effect or the level left.
In assay [7] the test system is THP-1. Kind of assay: Antiinflammatory activity in PMA-differentiated human THP-1 macrophages assessed as reduction in IL-6 production at 10 uM incubated for 24 hrs by ELISA coupled qRT-PCR analysis relative to control. Format: functional. Details: scale not given: the % may be the effect or the level left.
Assay [8] deals with THP-1. Kind of assay: Antiinflammatory activity in PMA-differentiated human THP-1 macrophages assessed as increase in IL-4 production at 10 uM incubated for 24 hrs by ELISA coupled qRT-PCR analysis. It counts as functional, cell-based.
The subject of assay [9] is THP-1. Kind of assay: Antiinflammatory activity in PMA-differentiated human THP-1 macrophages assessed as increase in IL-10 production at 10 uM incubated for 24 hrs by ELISA coupled qRT-PCR analysis. Format: functional, cell-based.
Assay [10] deals with THP-1. Briefly: Antiinflammatory activity against LPS-activated PMA-differentiated human THP-1 macrophages assessed as increase in IL-10 production at 10 uM incubated for 24 hrs by ELISA coupled qRT-PCR analysis. It counts as functional, cell-based.
Assay [11] has as its system THP-1. Kind of assay: Antiinflammatory activity against LPS-activated PMA-differentiated human THP-1 macrophages assessed as decrease in IL-1beta production at 10 uM incubated for 24 hrs by ELISA coupled qRT-PCR analysis relative to control. On the set-up: scale not given: the % may be the effect or the level left. Format: functional.
For assay [12], the system named is THP-1. Briefly: Antiinflammatory activity in LPS-activated PMA-differentiated human THP-1 macrophages assessed as increase in IL-4 production at 10 uM incubated for 24 hrs in the presence of JTE907 by ELISA coupled qRT-PCR analysis. It counts as functional, cell-based.
For assay [13], the system named is THP-1. Briefly: Antiinflammatory activity in LPS-activated PMA-differentiated human THP-1 macrophages assessed as decrease in TNF-alpha production at 10 uM incubated for 24 hrs in the presence of JTE907 by ELISA coupled qRT-PCR analysis. It counts as functional, cell-based.
The test system of assay [14] is THP-1. Kind of assay: Antiinflammatory activity in LPS-activated PMA-differentiated human THP-1 macrophages assessed as decrease in IFN-gamma production at 10 uM incubated for 24 hrs in the presence of JTE907 by ELISA coupled qRT-PCR analysis. Format: functional, cell-based.
In assay [15] the test system is THP-1. Briefly: Antiinflammatory activity in human THP-1 monocytes assessed as increase in IL-4 production at 10 uM incubated for 24 hrs in the presence of N-(adamantan-1-yl)-4-(pentylamino)-[1,1'-biphenyl]-3-carboxamide by ELISA coupled qRT-PCR analysis. Format: functional, cell-based.
The subject of assay [16] is THP-1. Kind of assay: Antiinflammatory activity against LPS-activated human THP-1 monocytes assessed as decrease in IL-6 production at 10 uM incubated for 24 hrs in the presence of N-(adamantan-1-yl)-4-(pentylamino)-[1,1'-biphenyl]-3-carboxamide by ELISA coupled qRT-PCR analysis. It counts as functional, cell-based.
The subject of assay [17] is THP-1. Briefly: Antiinflammatory activity against LPS-activated PMA-differentiated human THP-1 monocytes assessed as increase in IL-4 production at 10 uM incubated for 24 hrs in the presence of N-(adamantan-1-yl)-4-(pentylamino)-[1,1'-biphenyl]-3-carboxamide by ELISA coupled qRT-PCR analysis. It counts as functional, cell-based.
Assay [18] has as its system THP-1. Briefly: Antiinflammatory activity against LPS-activated PMA-differentiated human THP-1 monocytes assessed as decrease in IL-1beta production at 10 uM incubated for 24 hrs in the presence of N-(adamantan-1-yl)-4-(pentylamino)-[1,1'-biphenyl]-3-carboxamide by ELISA coupled qRT-PCR analysis. Format: functional, cell-based.
Assay [19] deals with THP-1. Kind of assay: Antiinflammatory activity against LPS-activated PMA-differentiated human THP-1 monocytes assessed as decrease in IFN-gamma production at 10 uM incubated for 24 hrs in the presence of N-(adamantan-1-yl)-4-(pentylamino)-[1,1'-biphenyl]-3-carboxamide by ELISA coupled qRT-PCR analysis. Format: functional, cell-based.
Assay [20] concerns THP-1. Briefly: Antiinflammatory activity against LPS-activated PMA-differentiated human THP-1 macrophages assessed as increase in IL-10 production at 1 to 10 uM incubated for 24 hrs by ELISA coupled qRT-PCR analysis. Format: functional, cell-based. As to conditions: dose 1-10 µM.
Assay [21] has as its system THP-1. Kind of assay: Antiinflammatory activity against LPS-activated PMA-differentiated human THP-1 macrophages assessed as decrease in IL-1beta production at 1 to 10 uM incubated for 24 hrs by ELISA coupled qRT-PCR analysis relative to control. It counts as functional. Details: scale not given: the % may be the effect or the level left. As to conditions: dose 1-10 µM.

The target of a further assay is Cannabinoid receptor 2 (Homo sapiens, UniProt P34972). Briefly: Agonist activity at human CB2 receptor expressed in CHO-K1 cells assessed as inhibition of NKH-477 induced cAMP production incubated for 30 mins by luminescence based analysis. It counts as functional, cell-based. In general terms: cAMP levels reflect the balance of adenylyl cyclase and phosphodiesterase activity.
Chain of Cannabinoid receptor 2 (P34972 whole entry): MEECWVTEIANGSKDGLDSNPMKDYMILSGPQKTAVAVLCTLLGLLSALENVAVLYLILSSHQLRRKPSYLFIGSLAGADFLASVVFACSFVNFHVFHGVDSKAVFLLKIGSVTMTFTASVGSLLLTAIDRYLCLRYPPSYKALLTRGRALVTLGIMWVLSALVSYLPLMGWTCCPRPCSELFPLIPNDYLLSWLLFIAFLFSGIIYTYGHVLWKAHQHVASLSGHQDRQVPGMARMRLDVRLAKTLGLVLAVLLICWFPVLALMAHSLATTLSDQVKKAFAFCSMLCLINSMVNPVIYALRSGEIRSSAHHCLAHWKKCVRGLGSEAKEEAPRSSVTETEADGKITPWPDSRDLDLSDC

For assay [22], the system named is THP-1. Briefly: Antiinflammatory activity in human THP-1 monocytes assessed as decrease in IL-1beta production incubated for 24 hrs by ELISA coupled qRT-PCR analysis. Format: functional, cell-based. The following applies: dose 1-10 µM.
For assay [23], the system named is THP-1. Briefly: Antiinflammatory activity in human THP-1 monocytes assessed as increase in IL-10 production incubated for 24 hrs by ELISA coupled qRT-PCR analysis. It counts as functional, cell-based. The following applies: dose 1-10 µM.
Assay [24] deals with THP-1. Briefly: Antiinflammatory activity in human THP-1 monocytes assessed as decrease in IFN-gamma production at 1 to 10 uM incubated for 24 hrs in the presence of JTE907 by ELISA coupled qRT-PCR analysis. It counts as functional, cell-based. As to conditions: dose 1-10 µM.
Assay [25] deals with THP-1. Kind of assay: Antiinflammatory activity in PMA-differentiated human THP-1 macrophages assessed as increase in IL-4 production at 1 to 10 uM incubated for 24 hrs in the presence of JTE907 by ELISA coupled qRT-PCR analysis. Format: functional, cell-based. As to conditions: dose 1-10 µM.
The test system of assay [26] is THP-1. Briefly: Antiinflammatory activity in LPS-activated PMA-differentiated human THP-1 macrophages assessed as increase in IL-10 production at 1 to 10 uM incubated for 24 hrs in the presence of JTE907 by ELISA coupled qRT-PCR analysis. The following applies: dose 1-10 µM. It counts as functional, cell-based.
Assay [27] deals with THP-1. Kind of assay: Antiinflammatory activity in LPS-activated PMA-differentiated human THP-1 macrophages assessed as decrease in IL-1beta production at 1 to 10 uM incubated for 24 hrs in the presence of JTE907 by ELISA coupled qRT-PCR analysis. It counts as functional, cell-based. As to conditions: dose 1-10 µM.

Each structure is given as a SMILES string. Activity calls are given as the source filed them. The calls are words filed in the database; no cut-off is given here.

As a reminder, the EC50 is the midpoint of the concentration-response curve.

As to `O=C(NC1CCCCC1)c1cn(CCN2CCOCC2)c2cc(Cl)ccc2c1=O`, the outcome in the assay with THP-1 [1], with THP-1 [2], in the assay with THP-1 [3], in the assay on THP-1 [4], in the assay on THP-1 [5] and in the assay on THP-1 [12] was inactive. In addition, the result in the assay with THP-1 [13], with THP-1 [14], in the assay on THP-1 [15], in the assay with THP-1 [16], with THP-1 [17] and in the assay with THP-1 [18] was inactive. Besides, the outcome in the assay on THP-1 [19] was inactive. Further, the figures for the Activity in the assay with THP-1 [6], in the assay on THP-1 [7] and in the assay on THP-1 [11] were 50%, 50% and 70%, respectively. Also, the result with THP-1 [8], with THP-1 [9] and in the assay on THP-1 [10] was Active.

With `CCCCCNc1ccccc1C(=O)NC12CC3CC(CC(C3)C1)C2`, the result in the assay on THP-1 [20] was Active. The Activity with THP-1 [21] is 70%; with THP-1 [22] it was “Dose-Dependent Effect”; in the assay with THP-1 [23] it was “Dose-Dependent Effect”. In addition, the EC50 on Cannabinoid receptor 2 was 560 nM. Moreover, the result in the assay on THP-1 [24], in the assay on THP-1 [25], with THP-1 [26] and in the assay on THP-1 [27] was inactive.
